Assay results from patent US6869593B2, “Non-isotopic detection of osteoblastic activity in vivo using modified bisphosphonates” (Beth Israel Deaconess Medical Center, priority 2000, dated 2005).

Columns and labels:
[1] = rats; cited from earlier work
[2] = Kinetic binding to hydroxyapatite crystals; conditions: 5 μM compound, 37° C.
Protocol: In Vitro Hydroxyapatite Binding Experiments. For kinetic measurements of binding to HA, 5 μM Pam78 or the carboxylic acid of IRDye78 was added from a 20× stock solution to 100 μl NK buffer containing 1.5 mg/ml (1.5 mM) HA. Suspensions were continuously vortexed at 37° C. for the time indicated. Bound and unbound material was separated using a 0.2 μm filter in a 96-well format (Model MAGVN2210, Millipore, Bedford, Mass.), and the concentration of material in the filtrate was measured using the SPECTRAmax Gemini XS fluorescence microplate reader set for an excitation wavelength of 771 nm and an emission wavelength of 796 nm. Bound material was calculated by subtracting unbound compound from the total added to each reaction.

[3] = Spectral measurements (absorbance, fluorescence); format: physicochemical
Protocol: Spectral Measurements. Absorbance measurements and scans were performed on a Model DU-600 spectrophotometer (Beckman, Fullerton, Calif.) using 1 μM of each compound in 20 mM N-ethylmorpholine (NEM), pH 7.4 and 150 mM KCl (NK buffer). Fluorescence measurements, and excitation/emission scans were performed on a SPECTRAmax Gemini XS microplate reader (Molecular Devices, Sunnyvale, Calif.) using Model 655076 black 96-well plates (Greiner, Lake Mary, Fla.), and […] of each compound in NK buffer. Curves were analyzed using SOFTmax PRO software (Molecular Devices, Sunnyvale, Calif.) and plotted using Prism3 for the Macintosh (GraphPad Software, Inc., San Diego, Calif.).

[4] = In vivo near-infrared fluorescence imaging of HA
Protocol: Compound Injection and Measurement of Serum Concentration. Hairless 7 week old male nu/nu mice (Charles River Laboratories, Wilmington, Mass.; average weight 25 g) were anesthetized with 50 mg/kg i.p. pentobarbital. The lateral tail vein was visualized using a flashlight and 2.6 nmol of compound resuspended in 80 μl of phosphate buffered saline (PBS) was injected using a bent, 30 gauge, ½″ needle.

[5] = Quantitation of skeletal uptake by rib fluorescence intensity
Protocol: However, we were able to estimate skeletal uptake by measuring fluorescence intensity of the ribs in the skinless animal. Calibration standards matching the geometry of the ribs were placed next to the animal and mean fluorescence intensities of each standard and the caudal three ribs on each side were measured.

[6] = Serum concentration after intravenous injection (plasma elimination); conditions: 2.6 nmol intravenous, tail vein
Protocol: Hairless 7 week old male nu/nu mice (Charles River Laboratories, Wilmington, Mass.; average weight 25 g) were anesthetized with 50 mg/kg i.p. pentobarbital. The lateral tail vein was visualized using a flashlight and 2.6 nmol of compound resuspended in 80 μl of phosphate buffered saline (PBS) was injected using a bent, 30 gauge, ½″ needle. For measurement of plasma concentration, the tip of the tail of an anesthetized animal was cut with a razor blade, and 75 μl of whole blood was milked, and collected with a capillary tube. After clotting and removal of cells by centrifugation, serum was diluted 1:10 in 50 mM Hepes, pH 7.4 and a wavelength scan from 400 nm to 850 nm was performed. Serum concentration was determined by peak height at 771 nm after subtraction of background (pre-injection serum), and correction for hemoglobin absorbance.

[7] = Competition of Pam78 binding to HA by unlabeled pamidronate; conditions: 80 nmol (800 μM) unlabeled pamidronate; 2.5 μM Pam78; 1.5 mg/ml HA; three hours
Protocol: For competition experiments, free pamidronate was pre-incubated in 100 μl NK buffer with 1.5 mg/ml (1.5 mM) HA for five minutes at room temperature with continuous vortexing. Pam78 was then added from a 20× stock solution to a final concentration of 2.5 μM. Incubation at 37° C. with continuous vortexing continued for three hours prior to filtration and measurement as described above.

## O.O.O=P([O-])([O-])CP(=O)([O-])[O-].[99Tc+4] [^99mTc-MDP]
[1]
  skeletal uptake: 52%

## CC1(C)C(/C=C/C2=C(Oc3ccc(CCC(=O)NCCC(O)(P(=O)([O-])O)P(=O)(O)O)cc3)C(=C\C=C3/N(CCCCS(=O)(=O)O)c4ccc(S(=O)(=O)O)cc4C3(C)C)/CCC2)=[N+](CCCCS(=O)(=O)O)c2ccc(S(=O)(=O)O)cc21 (centres unmarked) [Pam78]
[2]; 1.5 mg/ml HA
  time to asymptotic binding to HA: ≤ 1 h
[2]; five minutes, 1.5 mg/ml (1.5 mM) HA, NK buffer
  percent of peak binding to HA achieved: 37%
[3]; 1 μM in NK buffer
  peak absorption: unchanged from IRDye78
[3]; excitation fixed at 771 nm, NK buffer
  peak emission: 796 nm
[4]; 2.6 nmol intravenous
  time at which uptake in spine, ribs, paws and knees is detected above background: 15 min
  time by which phalanges, wrist, skull, pelvis, femur and ankle become visible: ≤ 3 h
[4]; twelve hours post-injection
  stability in vivo (skeletal signal): no degradation of skeletal signal
[5]; caudal three ribs on each side, skinless animal, 2.6 nmol injected
  concentration in ribs (mean±S.E.M.): 910 ± 27 nM
[5]; out of 2.6 nmol injected
  skeletal uptake, percentage of injected dose: 57%
[5]; out of 2.6 nmol injected, assuming bone density 1.8 g/cm^3, skeletal weight 11.8% body weight
  amount bound to the skeleton: 1.5 nmol
[6]
  early half-life of elimination from plasma: 5.0 min
  late half-life of elimination from plasma: 15.4 min

## NCCC(O)(P(=O)(O)O)P(=O)(O)O [pamidronate]
[7]
  inhibition of Pam78 binding to HA: 90%
